# Laboratory results from patent US20180044343A1, “BICYCLIC IMIDAZOLO DERIVATIVE” (Sumitomo Dainippon Pharma Co., Ltd., priority 2015, published 2018).
# Target: PDE1B (Homo sapiens, UniProt Q01064)
# Assay: In vitro HTRF PDE1 inhibition assay (PDE1B)
# Assay type: biochemical
# Settings: in vitro PDE1B HTRF Assay; read-out: IC50
# Sequence of PDE1B (Q01064 whole entry): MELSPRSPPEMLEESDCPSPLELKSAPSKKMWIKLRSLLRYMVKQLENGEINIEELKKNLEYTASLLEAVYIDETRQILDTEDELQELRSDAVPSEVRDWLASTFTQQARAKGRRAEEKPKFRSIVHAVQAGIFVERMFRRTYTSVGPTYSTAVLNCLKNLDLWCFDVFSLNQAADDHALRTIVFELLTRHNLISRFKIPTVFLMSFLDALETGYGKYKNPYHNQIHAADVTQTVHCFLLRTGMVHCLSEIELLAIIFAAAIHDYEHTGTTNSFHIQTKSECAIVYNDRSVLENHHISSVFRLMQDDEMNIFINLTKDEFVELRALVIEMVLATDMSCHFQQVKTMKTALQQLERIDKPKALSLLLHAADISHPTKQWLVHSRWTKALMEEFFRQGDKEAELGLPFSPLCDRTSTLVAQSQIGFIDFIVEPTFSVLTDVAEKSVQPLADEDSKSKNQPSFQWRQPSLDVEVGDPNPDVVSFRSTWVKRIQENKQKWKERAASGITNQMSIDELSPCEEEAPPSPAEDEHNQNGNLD
row,IC50 [nM],SMILES
1,< 1000,CCn1c(OCCCc2ncccc2F)nn2c(C3CCOCC3)ncc2c1=O [Example 65]
2,< 1000,CC(=O)N1CCN(c2nn3c(C4CCOCC4)ncc3c(=O)n2C)CC1 [Example 195]
3,< 1000,"Cn1c(OC[C@H]2CC[C@@H](C(F)(F)F)CC2)nn2c(C3CCOCC3)ncc2c1=O [Example 248, 3-methyl-7-(tetrahydro-2H-pyran-4-yl)-2-{[cis-4-(trifluoromethyl)cyclohexyl]methoxy}-imidazo[5,1-f][1,2,4]triazin-4(3H)-one]"
4,< 1000,"CCn1c(COc2ccc(F)cc2)nn2c(C3CCOCC3)ncc2c1=O [Example 259, 3-Ethyl-2-[(4-fluorophenoxy)methyl]-7-(tetrahydro-2H-pyran-4-yl)imidazo[5,1-f][1,2,4]triazin-4(3H)-one]"
5,< 1000,CCCn1c(N2CCC[C@@H]2c2ccc(Cl)cc2)nn2c(C(C)C)ncc2c1=O [Example 179]
6,< 1000,CCn1c(OCC2CCC(OC(F)(F)F)CC2)nn2c(C3CCOCC3)ncc2c1=O (stereo not drawn) [Example 285]
7,< 1000,Cn1c(OCCCc2ccccn2)nn2c(C3CCOCC3)ncc2c1=O [Example 31]
8,< 1000,CCn1c(OCCCc2cccc(C)n2)nn2c(C3CCOCC3)ncc2c1=O [Example 72]
9,< 1000,Cn1c(OCCCc2ccc(F)cn2)nn2c(C3CCOCC3)ncc2c1=O [Example 41]
10,< 1000,"Cc1ccc(COc2nn3c(C(C)C)ncc3c(=O)n2C)nc1 [Example 2, 3-Methyl-2-[(5-methylpyridin-2-yl)methoxy]-7-(propan-2-yl)imidazo[5,1-f][1,2,4]triazin-4(3H)-one]"
11,< 1000,COc1ccc(CNc2nn3c(C(C)C)ncc3c(=O)n2C)cc1 [Example 140]
12,< 1000,CC(C)c1ncc2c(=O)[nH]c(N3CCC[C@@H]3c3ccccc3)nn12 [Example 130]
13,< 1000,COc1nn2c(C3CCOCC3)ncc2c(=O)n1Cc1ccc(C)cc1 [Example 264]
14,< 1000,COCCn1c(OCc2ccc(F)cc2)nn2c(C3CCOCC3)ncc2c1=O [Example 279]
15,< 1000,CC(C)c1ncc2c(=O)n(C)c(N[C@@H]3CCCc4ccccc43)nn12 [Example 144]
16,< 1000,Cn1c(OCCCc2cccnc2)nn2c(C3CCOCC3)ncc2c1=O [Example 46]
17,< 1000,COCC1CCN(c2nn3c(C4CCOCC4)ncc3c(=O)n2C)CC1 [Example 192]
18,< 1000,CC(C)c1ccc([C@H]2CCCN2c2nn3c(C(C)C)ncc3c(=O)n2C)cc1 [Example 166]
19,1000 to 10000,COc1nn2c(C3CCOCC3)ncc2c(=O)n1Cc1ccccn1 [Example 268]
20,< 1000,CCn1c(OCCc2ccc(C(F)(F)F)cc2)nn2c(C3CCOCC3)ncc2c1=O [Example 78]
21,< 1000,CC(C)c1ncc2c(=O)n(C)c(NCc3ccc(C#N)cn3)nn12 [Example 158]
22,< 1000,Cn1c(N2CC[C@@H](Oc3ccc(F)cn3)C2)nn2c(C3CCOCC3)ncc2c1=O [Example 189]
23,< 1000,O=c1[nH]c(N2CCCC2c2ccccc2Cl)nn2c(C3CCOCC3)ncc12 (stereo not drawn) [Example 127]
24,< 1000,COc1nn2c(C3CCOCC3)ncc2c(=O)n1Cc1ccc(F)cc1 [Example 108]
25,< 1000,CCn1c(OCc2ccccc2)nn2c(C(C)C)ncc2c1=O [Example 17]
26,10000 to 100000,"CN(C)CC(=O)N1CCCN(c2nn3c(C4CCOCC4)ncc3c(=O)n2C)CC1 [Example 222, 2-{4-[(Dimethylamino)acetyl]-1,4-diazepan-1-yl}-3-methyl-7-(tetrahydro-2H-pyran-4-yl)imidazo[5,1-f][1,2,4]triazin-4(3H)-one]"

row,IC50 [nM],SMILES
1,< 1000,COC1CCN(c2nn3c(C4CCOCC4)ncc3c(=O)n2C)CC1 [Example 191]
2,< 1000,CCOC[C@H]1CC[C@H](COc2nn3c(C4CCOCC4)ncc3c(=O)n2CC)CC1 [Example 289]
3,1000 to 10000,CCn1c(NCc2ncccc2C)nn2c(C(C)C)ncc2c1=O [Example 173]
4,1000 to 10000,CC(C)c1ncc2c(=O)n(C)c(CN3Cc4ccccc4C3=O)nn12 [Example 232]
5,< 1000,CC(C)c1ncc2c(=O)n(C)c(COc3ccc(F)cc3)nn12 [Example 226]
6,< 1000,COC(C)c1ncc2c(=O)n(C)c(OCC3CCC(F)(F)CC3)nn12 (stereo not drawn) [Example 112]
7,< 1000,Cn1c(OCCCc2ncccc2F)nn2c(C3CCOCC3)ncc2c1=O [Example 43]
8,< 1000,"CCn1c(COC2CCC(F)(F)CC2)nn2c(C3CCOCC3)ncc2c1=O [Example 260, 2-{[(4,4-Difluorocyclohexyl)oxy]methyl}-3-ethyl-7-(tetrahydro-2H-pyran-4-yl)imidazo[5,1-f][1,2,4]triazin-4(3H)-one]"
9,1000 to 10000,Cn1c(COc2ccc(F)cc2)nn2c(C3CCCC3)ncc2c1=O [Example 228]
10,< 1000,Cn1c(OCc2ccc(-c3ccccn3)cc2)nn2c(C3CCOCC3)ncc2c1=O [Example 44]
11,< 1000,CCO[C@H]1CC[C@H](Oc2nn3c(C4CCOCC4)ncc3c(=O)n2C)CC1 [Example 314]
12,< 1000,CC(C)c1ncc2c(=O)n(C)c(NCc3cccnc3)nn12 [Example 152]
13,< 1000,CCn1c(OC(C)c2ccc(F)cc2)nn2c(C3CCOCC3)ncc2c1=O (stereo not drawn) [Example 69]
14,< 1000,CCn1c(O[C@H]2CC[C@@H](C(F)(F)F)CC2)nn2c(C3CCOCC3)ncc2c1=O [Example 308]
15,< 1000,CCn1c(OC2CCCC2)nn2c(C3CCOCC3)ncc2c1=O [Example 300]
16,< 1000,Cn1c(OCc2ccc(-c3ccc(Cl)cn3)cc2)nn2c(C3CCOCC3)ncc2c1=O [Example 50]
17,< 1000,CCn1c(NCc2ccc(C)cn2)nn2c(C(C)C)ncc2c1=O [Example 170]
18,< 1000,CCn1c(OCCCc2ccncc2)nn2c(C3CCOCC3)ncc2c1=O [Example 61]
19,< 1000,Cn1c(OCc2ccc(OC(F)(F)F)cc2)nn2c(C3CCOCC3)ncc2c1=O [Example 293]
20,< 1000,O=c1[nH]c(N2CCC[C@H]2c2ccccc2)nn2c(C3CCOCC3)ncc12 [Example 126]
21,< 1000,Cn1c(OCc2ccc(Cl)cc2)nn2c(C3CCOCC3)ncc2c1=O [Example 28]
22,< 1000,CC(C)c1ncc2c(=O)n(C)c(NC3(c4ccccn4)CC3)nn12 [Example 161]
23,10000 to 100000,COCCn1c(N2CCCC2)nn2c(C3CCOCC3)ncc2c1=O [Example 210]
24,1000 to 10000,COc1nn2c(C3CCOCC3)ncc2c(=O)n1Cc1cccnc1 [Example 267]
25,< 1000,CCn1c(O[C@H]2CC[C@@H](COC)CC2)nn2c(C3CCOCC3)ncc2c1=O [Example 319]
26,< 1000,CC(C)c1ncc2c(=O)n(C)c(N[C@H]3CCCc4ccccc43)nn12 [Example 145]

row,IC50 [nM],SMILES
1,< 1000,COc1ccc(Cn2c(OC)nn3c(C4CCOCC4)ncc3c2=O)cc1 [Example 265]
2,< 1000,CCn1c(OCc2cccnc2)nn2c(C(C)C)ncc2c1=O [Example 19]
3,< 1000,CCn1c(NCCc2ccccn2)nn2c(C(C)C)ncc2c1=O [Example 177]
4,< 1000,"Cc1ccc(-c2nn3c(C4CCOCC4)ncc3c(=O)n2C)cc1 [Example 236, 3-Methyl-2-(4-methylphenyl)-7-(tetrahydro-2H-pyran-4-yl)imidazo[5,1-f][1,2,4]triazin-4(3H)-one]"
5,< 1000,COc1nn2c(C3CCOCC3)nc(C)c2c(=O)n1CC1CCC(F)(F)CC1 [Example 122]
6,< 1000,CCn1c(OCCc2ccccc2)nn2c(C3CCOCC3)ncc2c1=O [Example 73]
7,< 1000,Cn1c(NCc2ccc(Cl)cc2)nn2c(C3CCOCC3)ncc2c1=O [Example 180]
8,10000 to 100000,O=c1c2cnc(C3CCOCC3)n2nc(N2CCCC2)n1CC1CCCC1 [Example 212]
9,1000 to 10000,COCCn1c(OCC2CCC(F)(F)CC2)nn2c(C3CCOCC3)ncc2c1=O [Example 277]
10,< 1000,Cc1ccc(COc2nn3c(C4CCOCC4)ncc3c(=O)n2C)cc1 [Example 27]
11,< 1000,CCn1c(OCCc2ccc(F)cc2)nn2c(C3CCOCC3)ncc2c1=O [Example 70]
12,< 1000,CCn1c(OCCCc2cccnc2)nn2c(C3CCOCC3)ncc2c1=O [Example 68]
13,< 1000,"CCn1c(OCC2CCC(F)(F)CC2)nn2c(C3CCOCC3)nc(Cl)c2c1=O [Example 119, 5-chloro-2-[(4,4-difluorocyclohexyl)methoxy]-3-ethyl-7-(tetrahydro-2H-pyran-4-yl)-imidazo[5,1-f][1,2,4]triazin-4(3H)-one]"
14,< 1000,Cc1ccc([C@H]2CCCN2c2nn3c(C(C)C)ncc3c(=O)n2C)cc1 [Example 165]
15,1000 to 10000,CC(C)c1ncc2c(=O)[nH]c(N3CCC[C@H]3c3ccccc3)nn12 [Example 131]
16,< 1000,CCn1c(OCCCc2ncccc2C)nn2c(C3CCOCC3)ncc2c1=O [Example 71]
17,< 1000,CCc1ccc([C@H]2CCCN2c2nn3c(C(C)C)ncc3c(=O)n2C)cc1 [Example 168]
18,< 1000,CCn1c(OCc2ccc(-c3ccc(C)cc3)cc2)nn2c(C3CCOCC3)ncc2c1=O [Example 81]
19,< 1000,CC(C)Cn1c(OCC2CCC(F)(F)CC2)nn2c(C3CCOCC3)ncc2c1=O [Example 96]
20,< 1000,CC(C)c1ncc2c(=O)n(C)c(NCc3ccccn3)nn12 [Example 150]
21,< 1000,"Cc1nn2c(C3CCOCC3)ncc2c(=O)n1CC1CCC(F)(F)CC1 [Example 237, 3-[(4,4-Difluorocyclohexyl)methyl]-2-methyl-7-(tetrahydro-2H-pyran-4-yl)imidazo[5,1-f][1,2,4]triazin-4(3H)-one]"
22,1000 to 10000,CC(C)c1ncc2c(=O)n(C)c(N(C)Cc3ccccn3)nn12 [Example 163]
23,< 1000,"O=c1[nH]c(N2CCC[C@@H]2c2ccccc2)nn2c(C3CCOCC3)ncc12 [Example 124, 2-[(2R)-2-phenylpyrrolidin-1-yl]-7-(tetrahydro-2H-pyran-4-yl)imidazo[5,1-f][1,2,4]triazin-4(3H)-one]"
24,1000 to 10000,CN(C)C(=O)C1CCN(c2nn3c(C4CCOCC4)ncc3c(=O)n2C)CC1 [Example 194]
25,< 1000,COCCn1c(OCC2CCC(F)(F)CC2)nn2c(C(C)C)ncc2c1=O [Example 278]
26,< 1000,Cn1c(OCc2ccc(-c3ccc(F)cn3)cc2)nn2c(C3CCOCC3)ncc2c1=O [Example 53]
